Reference: PubChem BioAssay (NCI)
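A five-concentration, 48-hour dose response in 96-well plates underlies each endpoint, interpolated linearly between surrounding concentrations. Abbreviation: GI50, concentration required for 50% inhibition of growth. TGI: total growth inhibition.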

Legend:
Assay in all cases: inhibition of tumour cell growth, NCI panel, 48 h
SK-MEL-28 melanoma = system: SK-MEL-28 melanoma
SK-MEL-2 melanoma = system: SK-MEL-2 melanoma
SF-539 CNS = system: SF-539 CNS
HS 578T breast = system: HS 578T breast
NCI-H460 lung = system: NCI-H460 lung
MDA-MB-231 breast = system: MDA-MB-231 breast
ACHN renal = system: ACHN renal
MCF7 breast = system: MCF7 breast
SNB-19 CNS = system: SNB-19 CNS
UACC-257 melanoma = system: UACC-257 melanoma

| SMILES | TGI (SK-MEL-28 melanoma) [µM] | TGI (SK-MEL-2 melanoma) [µM] | TGI (SF-539 CNS) [µM] | TGI (HS 578T breast) [µM] | TGI (NCI-H460 lung) [µM] | TGI (MDA-MB-231 breast) [µM] | TGI (ACHN renal) [µM] | TGI (MCF7 breast) [µM] | TGI (SNB-19 CNS) [µM] | TGI (UACC-257 melanoma) [µM] | GI50 (SK-MEL-28 melanoma) [µM] | GI50 (SK-MEL-2 melanoma) [µM] | GI50 (SF-539 CNS) [µM] | GI50 (HS 578T breast) [µM] | GI50 (NCI-H460 lung) [µM] | GI50 (MDA-MB-231 breast) [µM] | GI50 (ACHN renal) [µM] | GI50 (MCF7 breast) [µM] | GI50 (SNB-19 CNS) [µM] | GI50 (UACC-257 melanoma) [µM] |
| --- | --- | --- | --- | --- | --- | --- | --- | --- | --- | --- | --- | --- | --- | --- | --- | --- | --- | --- | --- | --- |
| O=C1CSC(c2ccccc2[N+](=O)[O-])N1c1ccc(-c2ccc(-n3c(-c4ccccc4)nc4ccccc4c3=O)cc2)cc1 (stereo not given) | > 100 | > 100 | > 100 | > 100 | > 100 | > 100 | > 100 | > 100 | > 100 | > 100 | – | – | – | – | – | – | – | – | – | – |
| COc1cc(NCCC2CCCCN2)c2ncccc2c1 (stereo not given) | > 59.8 | > 91.1 | > 100 | > 100 | > 100 | > 92.1 | > 100 | 1.96 | > 100 | 41.1 | – | – | – | – | – | – | – | – | – | – |
| NC(=O)NCCCC(NC(=O)OCCCCCCn1ccc(=O)[nH]c1=O)C(=O)O (stereo not given) | > 100 | > 100 | > 100 | > 100 | > 100 | > 100 | > 100 | > 100 | > 100 | > 100 | – | – | – | – | – | – | – | – | – | – |
| NC(=O)Cc1nc2c(N)ncnc2n1C1OC(CO)C(O)C1O (stereo not given) | > 100 | > 100 | > 100 | > 100 | > 100 | > 100 | > 100 | > 100 | > 100 | > 100 | – | – | – | – | – | – | – | – | – | – |
| CCOC(=O)C1(C(=O)OCC)OC(C)=NC1(C(=O)OC)C(=O)OC | > 100 | > 100 | > 100 | > 100 | > 100 | > 100 | > 100 | > 100 | > 100 | > 100 | – | – | – | – | – | – | – | – | – | – |
| O=C(O)CCSCc1ccccc1 | > 100 | > 100 | > 100 | > 100 | > 100 | > 100 | > 100 | > 100 | > 100 | > 100 | – | – | – | – | – | – | – | – | – | – |
| CC(=O)OCC1OC(Nn2c(=O)[nH]c3ccccc3c2=O)C(OC(C)=O)C(OC(C)=O)C1OC(C)=O (stereo not given) | > 100 | > 100 | > 100 | > 100 | > 100 | > 100 | > 100 | > 100 | > 100 | > 100 | – | – | – | – | – | – | – | – | – | – |
| COc1ccc(CCCNC(=O)c2cc(OC)c(OC)cc2CCO)cc1OC | > 100 | > 100 | > 100 | > 100 | > 100 | > 100 | > 100 | > 100 | > 100 | > 100 | – | – | – | – | – | – | – | – | – | – |
| NC(Cc1ccc(N(CCCl)CCCl)cc1)C(=O)NC(CCC(=O)O)C(=O)O (stereo not given) | > 100 | > 100 | > 100 | > 100 | > 100 | > 100 | > 100 | > 100 | > 100 | > 100 | – | – | – | – | – | – | – | – | – | – |
| O=C(Nc1ccc(-n2ccc3c(NC(=O)c4ccccc4)ncnc32)cc1)Nc1ccc(Cl)c(Cl)c1 | 9.43 | 12.9 | 10.3 | 5.77 | 5.85 | 11 | 14.2 | 8.25 | 12.6 | 10.8 | 2.92 | 5.2 | 1.32 | 1.19 | 1.71 | 4.11 | 6.25 | 1.9 | 4.58 | 3.57 |
| Cc1ccc(S(=O)(=O)Oc2nc3ccccc3nc2OS(=O)(=O)c2ccc(C)cc2)cc1 | > 100 | > 100 | > 100 | > 100 | > 100 | > 100 | > 100 | > 100 | > 100 | > 100 | – | – | – | – | – | – | – | – | – | – |
| N#Cc1c(N2CCC(O)C2)c2ccccc2n2c1nc1ccccc12 (stereo not given) | > 100 | > 100 | > 100 | > 100 | > 100 | 60.1 | 42 | > 100 | > 100 | > 100 | – | – | – | – | – | – | – | – | – | – |
| C/C=C(\C)C(O)C(C)C(O)C/C=C(C)/C=C(\C)C/C(C)=C/C/C=C(\C)C(O)C(C)c1ccc(CCC)c(=O)o1 (stereo not given) | 32.3 | 45 | 28.2 | 37.9 | 22.7 | 26.4 | 53.2 | 22.9 | 42.3 | 15.2 | – | – | – | – | – | – | – | – | – | – |
| COC(=O)c1cc(C(=CCC[C@H]2CC[C@@]3(C)C(CCC4C3CC[C@@]3(C)C4CC[C@@H]3C(C)CCCC(C)C)C2)c2cc(Cl)c(O)c(C(=O)OC)c2)cc(Cl)c1O (stereo not given in full) | > 10 | > 10 | > 10 | > 10 | > 10 | > 10 | > 10 | > 10 | > 10 | > 10 | – | – | – | – | – | – | – | – | – | – |
| CCOC(=O)C1c2[nH]c3ccccc3c2CCN1C(=O)c1ccc(OC)o1 (stereo not given) | > 10 | > 10 | > 10 | > 10 | > 10 | > 10 | > 10 | > 10 | > 10 | > 10 | – | – | – | – | – | – | – | – | – | – |
